Experimental data as given in PubChem BioAssay (NCI).
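A five-concentration, 48-hour dose response in 96-well plates underlies each endpoint, interpolated linearly between surrounding concentrations. At the GI50, growth is halved. The concentration for full growth arrest is given as TGI.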

Assays:
Assay in all cases: DTP human tumour cell line panel, 48 h
IGROV1 ovarian = system: IGROV1 ovarian
KM12 colon = system: KM12 colon
M14 melanoma = system: M14 melanoma
MDA-N = system: MDA-N
SF-539 CNS = system: SF-539 CNS
SK-OV-3 ovarian = system: SK-OV-3 ovarian
TK-10 renal = system: TK-10 renal
UACC-257 melanoma = system: UACC-257 melanoma
OVCAR-3 ovarian = system: OVCAR-3 ovarian
HOP-92 NSCLC = system: HOP-92 NSCLC

Structure (SMILES)	TGI (IGROV1 ovarian)	TGI (KM12 colon)	TGI (M14 melanoma)	TGI (MDA-N)	TGI (SF-539 CNS)	TGI (SK-OV-3 ovarian)	TGI (TK-10 renal)	TGI (UACC-257 melanoma)	TGI (OVCAR-3 ovarian)	TGI (HOP-92 NSCLC)	GI50 (HOP-92 NSCLC)	GI50 (IGROV1 ovarian)	GI50 (KM12 colon)	GI50 (SK-OV-3 ovarian)	GI50 (TK-10 renal)	GI50 (UACC-257 melanoma)
O=C(/C=C/c1cccc(Br)c1)c1cccs1	36.6 µM	31.6 µM	51.1 µM	22.3 µM	31.9 µM	46.8 µM	31.5 µM	33 µM	–	–	–	–	–	–	–	–
FC(F)(F)c1ccccc1N1CCN(c2nc(-c3cccs3)nc3ccc(Br)cc23)CC1	> 100 µM	83.7 µM	> 100 µM	–	> 100 µM	> 100 µM	97.3 µM	> 100 µM	76.2 µM	–	–	–	–	–	–	–
Cc1cc(O)c2c(c1O)C(=O)C13C(=C2O)C(=O)C2C(O)C1C1C(O)C3C(=O)C3=C(O)c4c(O)cc(C)c(O)c4C(=O)C321 (stereo unspecified)	2.06 µM	10.7 µM	–	–	0.278 µM	0.319 µM	–	3.46 µM	–	–	–	–	–	–	–	–
O=C(Nc1nc2ccccc2n1Cc1ccccc1)NC12CC3CC(CC(C3)C1)C2	> 100 µM	> 100 µM	> 100 µM	–	> 100 µM	> 100 µM	> 100 µM	> 100 µM	> 100 µM	83.6 µM	–	–	–	–	–	–
O=C1O/C(=C(\Br)c2cccc3ccccc23)c2ccccc21	> 57.9 µM	> 55.2 µM	> 62.8 µM	–	> 100 µM	> 55.8 µM	> 51.2 µM	> 56.1 µM	> 57.2 µM	> 56.9 µM	–	–	–	–	–	–
COC(=O)C1=C(C)NC2(O)C=CC(=O)C3C(=O)N(c4ccccc4)C(=O)C132 (stereo unspecified)	> 100 µM	> 100 µM	> 100 µM	–	> 100 µM	> 100 µM	> 100 µM	> 100 µM	> 100 µM	> 100 µM	–	–	–	–	–	–
C=C1C(=O)OC2(C)C3CCC(C3)C12 (stereo unspecified)	> 100 µM	> 100 µM	95.7 µM	–	> 100 µM	> 100 µM	85.7 µM	–	> 100 µM	87.4 µM	–	–	–	–	–	–
Cc1nc2c(n1C(C)(C)C)C(=O)c1ccccc1C2=O	> 100 µM	> 100 µM	> 100 µM	–	> 100 µM	> 100 µM	> 100 µM	> 100 µM	> 100 µM	66.4 µM	–	–	–	–	–	–
COc1cc2c(c(OC)c1OC)-c1ccc(SC)c(=O)cc1[C@@H](OC(C)=O)CC2	–	> 48.5 µM	> 100 µM	–	–	–	> 100 µM	> 100 µM	–	> 100 µM	–	–	–	–	–	–
CN1C(=S)C(c2ccccc2)Sc2ccccc21 (stereo unspecified)	> 100 µM	> 100 µM	> 100 µM	> 100 µM	–	> 100 µM	> 100 µM	> 100 µM	> 100 µM	–	–	–	–	–	–	–
C=CCOCn1cnc2c(N)ncnc21	> 100 µM	> 100 µM	> 100 µM	> 100 µM	> 100 µM	> 100 µM	> 100 µM	> 100 µM	–	–	–	–	–	–	–	–
COc1ccccc1-c1cc(=O)c2ccccc2[nH]1	> 100 µM	> 100 µM	> 100 µM	–	> 100 µM	> 100 µM	> 100 µM	> 100 µM	> 100 µM	–	–	–	–	–	–	–
O=C(Nc1nc2c(=O)[nH]cnc2s1)c1ccccc1	> 100 µM	–	–	–	> 100 µM	> 100 µM	> 100 µM	> 100 µM	> 100 µM	> 100 µM	–	–	–	–	–	–
O=C(N=C1SCCN1C(=O)C(C(F)(F)F)C(F)(F)F)C(C(F)(F)F)C(F)(F)F	> 100 µM	–	> 100 µM	–	> 100 µM	> 100 µM	> 100 µM	> 100 µM	> 100 µM	> 100 µM	–	–	–	–	–	–
COc1ccc(N2C(=Nc3ccccc3)SC(=N/S(=O)(=O)c3ccccc3)/C2=N\S(=O)(=O)c2ccccc2)cc1	27.3 µM	88.7 µM	> 100 µM	–	–	–	52.3 µM	73.1 µM	–	42 µM	–	–	–	–	–	–
Cc1ccnc2[nH]c(-c3cccc(Cl)c3)cc(=O)c12	> 100 µM	> 47.8 µM	> 100 µM	–	–	> 100 µM	> 100 µM	> 100 µM	0.162 µM	> 100 µM	–	–	–	–	–	–
O=c1c(SSc2coc3cc(F)ccc3c2=O)coc2cc(F)ccc12	20.2 µM	28.5 µM	–	34.3 µM	> 100 µM	–	66.5 µM	77 µM	> 100 µM	–	–	–	–	–	–	–
CCOc1ccc(/C=C(\Cl)c2ccc(OC)c(OC)c2)cc1	> 100 µM	–	89.6 µM	–	> 100 µM	> 100 µM	–	97.9 µM	–	> 100 µM	–	–	–	–	–	–
CC(=O)[C@@H]1CCC=C2CC[C@]3(C)[C@@H](CC[C@@H]4[C@@]5(C)CCCNC(C)(C)[C@@H]5CC[C@]43C)[C@H]21	3.28 µM	3.6 µM	–	–	–	3.37 µM	3.45 µM	4.29 µM	–	2.77 µM	1.37 µM	1.69 µM	1.93 µM	1.81 µM	1.88 µM	2.19 µM
CCCCCC(=O)c1ccc2[nH]c3c(C)cc([N+](=O)[O-])c(C)c3c2c1	–	> 100 µM	> 100 µM	–	> 100 µM	–	> 100 µM	> 100 µM	> 100 µM	–	–	–	–	–	–	–
Cc1c2c(cc3c1[nH]c1ccccc13)C=NCC2	49.5 µM	27.8 µM	–	–	11.9 µM	97.2 µM	–	19.6 µM	11.8 µM	16.4 µM	–	–	–	–	–	–
